Measured values reported in patent US20100234467A1, “METHODS FOR IMPROVING BIOAVAILABILITY OF A RENIN INHIBITOR” (priority 2006, published 2010).

Tested on: Caco-2 cell monolayers
Format: in vitro ADME
Description: Alternatively, the in vitro transporter affinity of a drug substance can be determined and approximated by a Caco-2 cell assay as described, e.g., in […] et al., Pharm. Act. Helv. 71, 309-327 (1996), or as illustrated herein in the Examples. The identification of the transporter protein and the efficacy of a compound to inhibit the efflux system involved may as well be determined in the Caco-2 cell assay. […] Caco-2 cell monolayers grown on PET filters for 21-25 days are used for the transport experiments. The flux of compounds across Caco-2 cell monolayers grown on PET filters as well as across PET filters alone without Caco-2 cells is determined as follows: […] To start the experiment, the medium in the donor compartment (0.35 mL for apical and 1.15 mL for basolateral sides) is replaced with donor solution (compound in HBSS, when relevant containing inhibitor of interest) pre-incubated at 37° C. Aliquots of 150 μL are removed from the donor and the acceptor side after about 1 and 120 min. Transport experiments in both apical-to-basolateral and basolateral-to-apical directions are performed in triplicate at 37° C. in an incubator without shaking. […] Radioactive samples are analyzed by liquid scintillation counting. All other non-radiolabeled samples are kept frozen at -20° C. until analysis by liquid chromatography/tandem mass spectrometry (LC-MS/MS). Transport values of the compounds tested are determined using the following equation (Artursson et al., Biochem. Biophys. Res. Comm. 175: 880-885, 1991): where Papp (cm/min) is the apparent permeability coefficient, ΔQ is the amount of compound found in the acceptor compartment at time t, Δt (min) is the incubation time period, C0 (μg/mL) is the initial concentration of the compound in the donor compartment and A (cm^2) is the surface area of the membrane. […] Under the conditions of this study, the LOQ of absolute radioactivity is 2 dpm for [^14C]-labeled Aliskiren corresponding to 12 nmol/L. Papp values are presented as means±standard deviations of the transport experiments performed (n=3). […]

Compound | efflux substrate identification (Caco-2) | intrinsic permeability (human, Caco-2, 120 min) [%] | apical to basolateral flux of marker (Papp, below threshold) (human, Caco-2, 120 min) [×10⁻⁶ cm/s]
COCCCOc1cc(C[C@@H](C[C@H](N)[C@@H](O)C[C@H](C(=O)NCC(C)(C)C(N)=O)C(C)C)C(C)C)ccc1OC [Aliskiren, (2S,4S,5S,7S)-5-amino-4-hydroxy-2-isopropyl-7-[4-methoxy-3-(3-methoxy-propoxy)-benzyl]-8-methyl-nonanoic acid (2-carbamoyl-2-methyl-propyl)-amide hemifumarate] | substrate for a prominent efflux system | < 80 | 
OC[C@@H](O)[C@@H](O)[C@H](O)[C@H](O)CO [Mannitol] |  |  | < 0.5
